Data: patent publication US7998965B2, “Glutamate aggrecanase inhibitors” (Wyeth LLC, priority 2005, dated 2011)
Like-named read-outs stand apart in the source and are kept apart here.

Tests used:
[1] = target: T1, purified recombinant human Aggrecanase-1 (rAgg1) (Homo sapiens, UniProt O75173); assay: In vitro fluorescence screen for Aggrecanase-1 inhibitors; type: biochemical; design: Agg1 % at concentration: scale not given here; details: for IC50: read-out: Agg1 IC50
T1 sequence (O75173 213-837): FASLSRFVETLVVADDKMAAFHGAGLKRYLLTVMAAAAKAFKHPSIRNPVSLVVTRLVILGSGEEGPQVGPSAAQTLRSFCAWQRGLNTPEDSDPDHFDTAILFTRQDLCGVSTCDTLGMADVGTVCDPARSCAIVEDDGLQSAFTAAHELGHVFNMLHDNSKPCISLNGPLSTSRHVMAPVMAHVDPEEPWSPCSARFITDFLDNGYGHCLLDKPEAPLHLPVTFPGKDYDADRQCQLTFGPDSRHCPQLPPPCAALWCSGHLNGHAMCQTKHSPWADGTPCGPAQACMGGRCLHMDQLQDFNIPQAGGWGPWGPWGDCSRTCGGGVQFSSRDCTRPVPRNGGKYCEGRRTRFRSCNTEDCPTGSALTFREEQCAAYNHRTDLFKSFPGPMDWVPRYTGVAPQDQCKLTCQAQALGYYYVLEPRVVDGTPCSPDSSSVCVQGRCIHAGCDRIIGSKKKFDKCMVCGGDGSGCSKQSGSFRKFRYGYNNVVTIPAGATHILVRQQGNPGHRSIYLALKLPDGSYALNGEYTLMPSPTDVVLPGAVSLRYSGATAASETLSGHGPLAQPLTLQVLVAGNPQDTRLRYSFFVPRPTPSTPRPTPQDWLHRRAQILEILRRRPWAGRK

[2] = target: T2, purified recombinant human Aggrecanase-2 (Ag2t-Phe628-Strep) (Homo sapiens, UniProt Q9UNA0); assay: In vitro fluorescence screen for Aggrecanase-2 inhibitors; type: biochemical; details: for IC50: read-out: Agg 2 IC50
T2 construct: the form used is denoted as Ag2t-Phe628-Strep (MW=41,737)
T2 sequence (Q9UNA0 262-628): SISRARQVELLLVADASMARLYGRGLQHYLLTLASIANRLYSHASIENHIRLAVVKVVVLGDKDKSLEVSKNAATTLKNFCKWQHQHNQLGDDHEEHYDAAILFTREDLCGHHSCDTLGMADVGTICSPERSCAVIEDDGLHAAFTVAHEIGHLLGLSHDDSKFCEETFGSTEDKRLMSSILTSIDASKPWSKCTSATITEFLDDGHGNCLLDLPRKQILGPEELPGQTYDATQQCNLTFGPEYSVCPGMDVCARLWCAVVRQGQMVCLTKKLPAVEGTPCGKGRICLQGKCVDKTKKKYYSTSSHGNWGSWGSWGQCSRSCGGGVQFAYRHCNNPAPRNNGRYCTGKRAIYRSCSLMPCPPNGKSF

| Structure (SMILES) | IC50 ([1]; Table 2) [nM] | IC50 ([2]; Table 2) [nM] | IC50 ([1]; Table 3) [nM] | IC50 ([2]; Table 3) [nM] | further results |
| --- | --- | --- | --- | --- | --- |
| Cc1cccc(CNC(=O)[C@H](CCC(=O)O)NC(=O)c2ccc3c(c2)C(=O)c2ccccc2-3)c1 [Example 8DDDDD, N^1-(3-methylbenzyl)-N^2-[(9-oxo-9H-fluoren-2-yl)carbonyl]-L-α-glutamine] | 315 | 1100 |  |  |  |
| CN(CCc1ccccc1)C(=O)[C@H](CCC(=O)O)NC(=O)c1ccc2c(c1)Cc1ccccc1-2 [Example 8DDDDDD, N^2-(9H-fluoren-2-ylcarbonyl)-N-methyl-N-(2-phenylethyl)-L-α-glutamine] | 2400 | > 22000 |  |  |  |
| Cc1cccc(CNC(=O)[C@H](CCC(=O)O)NC(=O)C2c3ccccc3-c3ccccc32)c1 [Example 8EEEEE, N^2-(9H-fluoren-9-ylcarbonyl)-N^1-(3-methylbenzyl)-L-α-glutamine] | > 50000 | > 200000 |  |  |  |
| O=C(O)CC[C@H](NC(=O)c1ccc(-c2ccccc2)cc1)C(=O)NCCc1ccccc1 [Example 8FFF, N^2-(1,1′-biphenyl-4-ylcarbonyl)-N^1-(2-phenylethyl)-L-α-glutamine] |  |  |  |  | IC50 ([1]; Table 1): 200 nM; IC50 ([2]; Table 1): 1000 nM |
| CCCCN(C)C(=O)[C@H](CCC(=O)O)NC(=O)c1ccc2c(c1)Cc1ccccc1-2 [Example 8FFFFFF, N-butyl-N^2-(9H-fluoren-2-ylcarbonyl)-N-methyl-L-α-glutamine] | 3900 | 18100 |  |  |  |
| O=C(O)CC[C@H](NC(=O)c1ccc2c(c1)C(=O)c1ccccc1-2)C(=O)NCc1ccccc1 [Example 8IIIII, N^1-benzyl-N^2-[(9-oxo-9H-fluoren-2-yl)carbonyl]-L-α-glutamine] | 813 | 1900 |  |  |  |
| COc1ccc(CCN(C)C(=O)[C@H](CCC(=O)O)NC(=O)c2ccc3c(c2)Cc2ccccc2-3)cc1OC [Example 8IIIIII, N-[2-(3,4-dimethoxyphenyl)ethyl]-N^2-(9H-fluoren-2-ylcarbonyl)-N-methyl-L-α-glutamine] | 2900 | 11900 |  |  |  |
| O=C(O)CC[C@H](NC(=O)c1ccc2c(c1)Cc1ccccc1-2)C(=O)NCc1ccccc1 [Example 8JJJJJ, N^1-benzyl-N^2-(9H-fluoren-2-ylcarbonyl)-L-α-glutamine] | 191 | 1100 |  |  |  |
| C[C@@H](CNC(=O)[C@H](CCC(=O)O)NC(=O)c1ccc2c(c1)Cc1ccccc1-2)c1ccccc1 [Example 8JJJJJJ, N^2-(9H-fluoren-2-ylcarbonyl)-N-[(2R)-2-phenylpropyl]-L-α-glutamine] | 300 | 943 |  |  |  |
| CC(C)(Cc1ccc(Cl)cc1)NC(=O)[C@H](CCC(=O)O)NC(=O)c1cccc(-c2ccc(Cl)s2)c1 [Example 8JJJJJJJJJ, N-[2-(4-chlorophenyl)-1,1-dimethylethyl]-N^2-[3-(5-chloro-2-thienyl)benzoyl]-L-α-glutamine] |  |  |  |  | Agg1 % at concentration ([1]; Table 3, at 25000 (nM)): 25%; Agg 2 % at concentration ([2]; Table 3, at 25000 (nM)): 10% |
| O=C(O)CC[C@H](NC(=O)c1ccc(-c2ccccc2)cc1)C(=O)NCCc1ccc(Br)cc1 [Example 8KKK, N^2-(biphenyl-4-ylcarbonyl)-N^1-[2-(4-bromophenyl)ethyl]-L-α-glutamine] |  |  |  |  | IC50 ([1]; Table 1): 120 nM; IC50 ([2]; Table 1): 2000 nM |
| O=C(O)CC[C@H](NC(=O)C1c2ccccc2-c2ccccc21)C(=O)NCc1ccccc1 [Example 8KKKKK, N^1-benzyl-N^2-(9H-fluoren-9-ylcarbonyl)-L-α-glutamine] | > 50000 | > 22000 |  |  |  |
| C[C@@H](CNC(=O)[C@H](CCC(=O)O)NC(=O)c1ccc(-c2ccccc2)cc1)c1ccccc1 [Example 8KKKKKK, N^2-(biphenyl-4-ylcarbonyl)-N-[(2R)-2-phenylpropyl]-L-α-glutamine] | 350 | 1670 |  |  |  |
| O=C(O)CC[C@H](NC(=O)c1cccc(Oc2ccccc2)c1)C(=O)NCc1ccccc1 [Example 8LLLLL, N^1-benzyl-N^2-(3-phenoxybenzoyl)-L-α-glutamine] | > 17000 | > 200000 |  |  |  |
| COc1cc(CNC(=O)[C@H](CCC(=O)O)NC(=O)c2ccc(-c3ccc(CO)cc3)cc2)cc(OC)c1OC [Example 8LLLLLLL, N^2-{[4′-(hydroxymethyl)biphenyl-4-yl]carbonyl}-N-(3,4,5-trimethoxybenzyl)-L-α-glutamine] |  |  | 228 | 3380 |  |
| CCC(C)(C)NC(=O)[C@H](CCC(=O)O)NC(=O)c1ccc(-c2ccccc2)cc1 [Example 8MM, N^2-(biphenyl-4-ylcarbonyl)-N^1-(1,1-dimethylpropyl)-L-α-glutamine] |  |  |  |  | Ki ([1]; Table 1, enzyme not given, column follows Agg1 IC50, read-out: Ki): 126 nM; IC50 ([1]; Table 1): 58 nM; IC50 ([2]; Table 1): 980 nM |
| O=C(O)CC[C@H](NC(=O)c1ccc(-c2ccccc2)cc1)C(=O)NCCc1cccc(Br)c1 [Example 8MMM, N^2-(biphenyl-4-ylcarbonyl)-N^1-[2-(3-bromophenyl)ethyl]-L-α-glutamine] |  |  |  |  | IC50 ([1]; Table 1): 40 nM; IC50 ([2]; Table 1): 500 nM |

Now from value to compound, other results behind:

| IC50 ([1]; Table 2) [nM] | IC50 ([2]; Table 2) [nM] | IC50 ([1]; Table 3) [nM] | IC50 ([2]; Table 3) [nM] | Structure (SMILES) | further results |
| --- | --- | --- | --- | --- | --- |
|  |  | < 30 | 220 | CC(C)(Cc1ccc(Cl)cc1)NC(=O)[C@H](CCC(=O)O)NC(=O)c1ccc(-c2cc(F)cc(F)c2)cc1 [Example 8DDDDDDD, N-[2-(4-chlorophenyl)-1,1-dimethylethyl]-N^2-[(3′,5′-difluorobiphenyl-4-yl)carbonyl]-L-α-glutamine] |  |
|  |  | 37 | 510 | CC(C)(Cc1ccc(Cl)cc1)NC(=O)[C@H](CCC(=O)O)NC(=O)c1ccc(-c2cccc(F)c2F)cc1 [Example 8EEEEEEE, N-[2-(4-chlorophenyl)-1,1-dimethylethyl]-N^2-[(2′,3′-difluorobiphenyl-4-yl)carbonyl]-L-α-glutamine] |  |
|  |  | 200 | 4200 | CC(C)(Cc1ccccc1)NC(=O)[C@H](CCC(=O)O)NC(=O)c1ccc(-c2cncnc2)cc1 [Example 8FFFFFFF, N-(1,1-dimethyl-2-phenylethyl)-N^2-(4-pyrimidin-5-ylbenzoyl)-L-α-glutamine] |  |
|  |  | 60 | 160 | CC(C)(Cc1ccccc1)NC(=O)[C@H](CCC(=O)O)NC(=O)c1ccc(-c2ccc(F)c(F)c2)cc1 [Example 8GGGGGGG, N^2-[(3′,4′-difluorobiphenyl-4-yl)carbonyl]-N-(1,1-dimethyl-2-phenylethyl)-L-α-glutamine] |  |
| 38 | 46 |  |  | CC(C)(Cc1ccc(F)cc1)NC(=O)[C@H](CCC(=O)O)NC(=O)c1ccc(-c2ccc3c(c2)OCO3)cc1 [Example 8HHHHHH, N^2-[4-(1,3-benzodioxol-5-yl)benzoyl]-N-[2-(4-fluorophenyl)-1,1-dimethylethyl]-L-α-glutamine] |  |
|  |  | 50 | 180 | CC(C)(Cc1ccccc1)NC(=O)[C@H](CCC(=O)O)NC(=O)c1ccc(-c2cc(F)cc(F)c2)cc1 [Example 8HHHHHHH, N^2-[(3′,5′-difluorobiphenyl-4-yl)carbonyl]-N-(1,1-dimethyl-2-phenylethyl)-L-α-glutamine] |  |
|  |  | < 30 | 42 | CC(C)(Cc1ccc(Cl)s1)NC(=O)[C@H](CCC(=O)O)NC(=O)c1ccc(-c2ccc(F)c(F)c2)cc1 [Example 8IIIIIII, N-[2-(5-chloro-2-thienyl)-1,1-dimethylethyl]-N^2-[(3′,4′-difluorobiphenyl-4-yl)carbonyl]-L-α-glutamine] |  |
|  |  | < 30 | 53 | CC(C)(Cc1ccc(Cl)s1)NC(=O)[C@H](CCC(=O)O)NC(=O)c1ccc(-c2ccccc2)cc1 [Example 8JJJJJJJ, N^2-(biphenyl-4-ylcarbonyl)-N-[2-(5-chloro-2-thienyl)-1,1-dimethylethyl]-L-α-glutamine] |  |
|  |  | < 30 | 800 to 2500 | CC(C)(Cc1ccc(Cl)cc1)NC(=O)[C@H](CCC(=O)O)NC(=O)c1ccc(-c2cccnc2)s1 [Example 8JJJJJJJJ, N-[2-(4-chlorophenyl)-1,1-dimethylethyl]-N^2-[(5-pyridin-3-yl-2-thienyl)carbonyl]-L-α-glutamine] |  |
|  |  | < 30 | < 30 | CC(C)(Cc1ccc(Cl)s1)NC(=O)[C@H](CCC(=O)O)NC(=O)c1ccc(-c2ccc(F)c(Cl)c2)s1 [Example 8KKKKKKK, N^2-{[5-(3-chloro-4-fluorophenyl)-2-thienyl]carbonyl}-N-[2-(5-chloro-2-thienyl)-1,1-dimethylethyl]-L-α-glutamine] |  |
| > 25000 | > 100000 |  |  | CC(C)(Cc1ccc(F)cc1)NC(=O)[C@H](CCC(N)=O)NC(=O)c1ccc(-c2ccccc2)cc1 [Example 8LLLLLL, N^2-(biphenyl-4-ylcarbonyl)-N^1-[2-(4-fluorophenyl)-1,1-dimethylethyl]-L-α-glutamamide] |  |
